# In patent US10080751B2, “Systems and methods for treating bacterial infection” (priority 2016, dated 2018):
# Where two headings read alike, the source gives them in different places.
# What was measured:
# [1] = test system: S. aureus; experiment: MIC with/without bovine pulmonary surfactant, S. aureus; assay type: cell-based, Staphylococcus aureus; conditions: for MICRZ, Resazurin: +BPS: 2.5% v/v BPS; for MICRZ, Resazurin: no BPS
# Description: (§1) Clinical isolates were identified by the submitting laboratories and confirmed by JMI Laboratories using standard bacteriologic algorithms and methodologies, including Matrix-Assisted Laser Desorption Ionization-Time Of Flight Mass Spectrometry (MALDI-TOF MS). When necessary, MALDI-TOF MS was performed using the Bruker Daltonics MALDI Biotyper (Billerica, Mass., USA), following manufacturer's instructions. Isolates selected were bacterial species commonly associated with pneumonia. […] 2.2 Susceptibility testing
# (§2) Antibacterial susceptibility testing was measured by JMI Labs (North Liberty, Iowa, USA). […] These clinical isolates were collected from US (n=4), Mexico (n=2), and Italy (n=1). Susceptibility testing was performed by broth microdilution in accordance with the Clinical and Laboratory and Standards Institute (CLSI) guidelines M07-A10 (2015) and the standard operating procedures at JMI laboratories. Minimum inhibitory concentrations (MICs) were based on CLSI criteria (2015). There are no published breakpoints for iclaprim. E. coli, K. pneumoniae, M. catarrhalis, E. faecalis, and S. aureus were tested in cation-adjusted Mueller-Hinton broth (CA-MHB). S. pneumoniae were tested in CA-MHB supplemented with 2.5-5% lysed horse blood, and H. influenza were tested in Haemophilus test medium. Quality control and interpretation of results were performed in accordance with CLSI M100-S26 (2016) methods. QC ranges for iclaprim were those approved by CLSI and published in M100-S26 (2016). Iclaprim and comparator antibiotic MIC results were within the CLSI published ranges against E. coli ATCC 25922, E. faecalis ATCC 29212, E. faecalis ATCC 33186, H. influenzae ATCC 49247, K. pneumoniae ATCC 700603 (ESBL phenotype), S. aureus ATCC 29213, and S. pneumoniae ATCC 49619. Isolates were tested with MIC panels (ThermoFisher Scientific, Cleveland, Ohio, USA) of comparator antibiotics (daptomycin and levofloxacin).
# (§3) Because bovine pulmonary surfactant can introduce cloudiness to the MIC testing media, antimicrobial growth inhibition was also evaluated using the colorimetric metabolic indicator resazurin (Camlab Ltd., Cambridge, UK). […] S. pneumoniae panels were omitted from resazurin analysis because the color change was obscured by the lysed horse blood present in the test medium. Growth inhibition was then evaluated as a visible color change from blue (no growth) to pink (robust growth) and recorded as a MICRZ value.
# (§4) The MICs of iclaprim, levofloxacin, and daptomycin were determined against Gram-positive and Gram-negative isolates.
# (§5) A new vial of bovine pulmonary surfactant (BPS; Survanta®; Abbott Laboratories, Columbus, Ohio) was utilized for each independent experiment. Each vial was mixed thoroughly and a 100 μL aliquot was spread on an agar plate, which was incubated overnight to confirm sterility. […] The concentration of surfactant was expressed in terms of percent volume of Survanta® suspension, which consisted of phospholipid (25 mg/mL) and surfactant proteins (<1 mg/mL) in 0.9% sodium chloride solution (Goerke, 1998). MICs of daptomycin were determined in CAMHB with the Ca^2+ content adjusted to 50 mg/L.
# [2] = test system: S. pneumoniae; experiment: MIC with/without bovine pulmonary surfactant, S. pneumoniae; assay type: cell-based; conditions: Streptococcus pneumoniae
# Description: as §1, §2, §3, §4, §5
# [3] = test system: E. coli; experiment: MIC with/without bovine pulmonary surfactant, E. coli; assay type: cell-based, Escherichia coli; conditions: E. coli ATCC 25922
# Description: as §1, §2, §3, §4
# A new vial of bovine pulmonary surfactant (BPS; Survanta®; Abbott Laboratories, Columbus, Ohio) was utilized for each independent experiment. […] MICs of daptomycin were determined in CAMHB with the Ca^2+ content adjusted to 50 mg/L.
# [4] = test system: H. influenzae; experiment: MIC with/without bovine pulmonary surfactant, H. influenzae; assay type: cell-based, Haemophilus influenzae; conditions: for MIC: Haemophilus influenzae
# Description: as §1, §2, §3, §4, §5
# [5] = test system: M. catarrhalis; experiment: MIC with/without bovine pulmonary surfactant, M. catarrhalis; assay type: cell-based, Moraxella catarrhalis; conditions: for MICRZ, Resazurin: +BPS: 2.5% v/v BPS
# Description: as §1, §2, §3, §4, §5
# [6] = test system: E. faecalis; experiment: MIC with/without bovine pulmonary surfactant, E. faecalis; assay type: cell-based, Enterococcus faecalis; conditions: for MIC: Enterococcus faecalis
# Description: as §1, §2, §3, §4, §5
# [7] = test system: K. pneumoniae; experiment: MIC with/without bovine pulmonary surfactant, K. pneumoniae; assay type: cell-based, Klebsiella pneumoniae; conditions: for MIC: Klebsiella pneumoniae
# Description: as §1, §2, §3, §4, §5
# [8] = test system: S. aureus strain AH1252; experiment: Neutropenic rat lung infection model; assay type: in vivo; conditions: iclaprim 80 mg/kg
# Description: S. aureus strain AH1252, a thymidine knockout of the MRSA wild type AW6 strain, was utilized for this study. The bacterial strain was diluted in a 2% alginate buffer, which was added dropwise in a ratio of 1:5 into […] to form alginate beads. The alginate beads reduce the efficacy of bacterial clearance similar to that seen in the cystic fibrosis population. A 5.25×10^4 bacterial inoculum was administered to groups of 9 rats, intratracheally, with prepared alginate bacteria suspensions, under isoflurane anesthesia. […] Twelve hours after the last treatment, rats were euthanized and lungs collected for CFU determination.
# [9] = test system: nosocomial pneumonia suspected or confirmed to be caused by Gram-positive pathogens; conditions: intent-to-treat, test of cure visit; vancomycin 1 g IV q12h; cited from earlier work
# [10] = S. aureus Clinical Isolate 825189
# [11] = SC/BID 3 days, vancomycin 50 mg/kg
smiles,measurement,setting,value
C[C@H]1COc2c(N3CCN(C)CC3)c(F)cc3c(=O)c(C(=O)O)cn1c23 [Levofloxacin],"MICRZ, Resazurin: +BPS",[1]; S. aureus ATCC 29213,0.12 µg/mL
same,"MICRZ, Resazurin",[1]; S. aureus ATCC 29213,0.25 µg/mL
same,"MICRZ, Resazurin: +BPS",[1]; [10],0.25 µg/mL
same,"MICRZ, Resazurin",[1]; [10],0.25 µg/mL
same,MIC,"[2]; ATCC49619, S. pneumoniae ATCC 49619, 2.5% v/v BPS, read-out: MIC, CLSI: +BPS",1 µg/mL
same,MIC,"[2]; ATCC49619, S. pneumoniae ATCC 49619, no BPS, read-out: MIC, CLSI",1 µg/mL
same,MIC,"[2]; S. pneumoniae Clinical Isolate 818757, 2.5% v/v BPS, read-out: MIC, CLSI: +BPS",1 µg/mL
same,MIC,"[2]; S. pneumoniae Clinical Isolate 818757, no BPS, read-out: MIC, CLSI",1 µg/mL
same,MIC,"[2]; S. pneumoniae Clinical Isolate 825175, 2.5% v/v BPS, read-out: MIC, CLSI: +BPS",1 µg/mL
same,MIC,"[2]; S. pneumoniae Clinical Isolate 825175, no BPS, read-out: MIC, CLSI",1 µg/mL
same,"MICRZ, Resazurin: +BPS",[3]; 2.5% v/v BPS,0.03 µg/mL
same,"MICRZ, Resazurin",[3]; no BPS,0.015 µg/mL
same,"MICRZ, Resazurin: +BPS","[4]; H. influenzae ATCC 49247, 2.5% v/v BPS",0.03 µg/mL
same,"MICRZ, Resazurin","[4]; H. influenzae ATCC 49247, no BPS",0.03 µg/mL
same,"MICRZ, Resazurin: +BPS","[4]; H. influenzae Clinical Isolate 824704, 2.5% v/v BPS",0.015 µg/mL
same,"MICRZ, Resazurin","[4]; H. influenzae Clinical Isolate 824704, no BPS",0.015 µg/mL
same,MIC,"[4]; ATCC49247, H. influenzae ATCC 49247, 2.5% v/v BPS, read-out: MIC, CLSI: +BPS",0.03 µg/mL
same,MIC,"[4]; ATCC49247, H. influenzae ATCC 49247, no BPS, read-out: MIC, CLSI",0.03 µg/mL
same,MIC,"[4]; H. influenzae Clinical Isolate 824704, 2.5% v/v BPS, read-out: MIC, CLSI: +BPS",0.015 µg/mL
same,MIC,"[4]; H. influenzae Clinical Isolate 824704, no BPS, read-out: MIC, CLSI",0.015 µg/mL
same,"MICRZ, Resazurin: +BPS",[5]; M. catarrhalis Clinical Isolate 893806,0.06 µg/mL
same,"MICRZ, Resazurin","[5]; M. catarrhalis Clinical Isolate 893806, no BPS",0.06 µg/mL
same,"MICRZ, Resazurin: +BPS",[5]; M. catarrhalis Clinical Isolate 893807,0.06 µg/mL
same,"MICRZ, Resazurin","[5]; M. catarrhalis Clinical Isolate 893807, no BPS",0.06 µg/mL
same,MIC,"[5]; Moraxella catarrhalis, M. catarrhalis Clinical Isolate 893806, no BPS",0.06 µg/mL
same,"MICRZ, Resazurin: +BPS","[6]; E. faecalis ATCC 29212, 2.5% v/v BPS",1 µg/mL
same,"MICRZ, Resazurin","[6]; E. faecalis ATCC 29212, no BPS",1 µg/mL
same,"MICRZ, Resazurin: +BPS","[6]; E. faecalis ATCC 33186, 2.5% v/v BPS",2 µg/mL
same,"MICRZ, Resazurin","[6]; E. faecalis ATCC 33186, no BPS",4 µg/mL
same,MIC,"[6]; ATCC29212, E. faecalis ATCC 29212, 2.5% v/v BPS, read-out: MIC, CLSI: +BPS",1 µg/mL
same,MIC,"[6]; ATCC29212, E. faecalis ATCC 29212, no BPS, read-out: MIC, CLSI",1 µg/mL
same,MIC,"[6]; ATCC33186, E. faecalis ATCC 33186, 2.5% v/v BPS, read-out: MIC, CLSI: +BPS",1 µg/mL
same,MIC,"[6]; ATCC33186, E. faecalis ATCC 33186, no BPS, read-out: MIC, CLSI",4 µg/mL
same,"MICRZ, Resazurin: +BPS","[7]; K. pneumoniae ATCC 700603, 2.5% v/v BPS",1 µg/mL
same,"MICRZ, Resazurin","[7]; K. pneumoniae ATCC 700603, no BPS",1 µg/mL
same,"MICRZ, Resazurin: +BPS","[7]; K. pneumoniae Clinical Isolate 858055, 2.5% v/v BPS",0.06 µg/mL
same,"MICRZ, Resazurin","[7]; K. pneumoniae Clinical Isolate 858055, no BPS",0.06 µg/mL
same,MIC,"[7]; ATCC700603, K. pneumoniae ATCC 700603, 2.5% v/v BPS, read-out: MIC, CLSI: +BPS",1 µg/mL
same,MIC,"[7]; ATCC700603, K. pneumoniae ATCC 700603, no BPS, read-out: MIC, CLSI",1 µg/mL
same,MIC,"[7]; K. pneumoniae Clinical Isolate 858055, 2.5% v/v BPS, read-out: MIC, CLSI: +BPS",0.12 µg/mL
same,MIC,"[7]; K. pneumoniae Clinical Isolate 858055, no BPS, read-out: MIC, CLSI",0.06 µg/mL
CN[C@H](CC(C)C)C(=O)N[C@H]1C(=O)N[C@@H](CC(N)=O)C(=O)N[C@H]2C(=O)N[C@H]3C(=O)N[C@H](C(=O)N[C@H](C(=O)O)c4cc(O)cc(O)c4-c4cc3ccc4O)[C@H](O)c3ccc(c(Cl)c3)Oc3cc2cc(c3O[C@@H]2O[C@H](CO)[C@@H](O)[C@H](O)[C@H]2O[C@H]2C[C@](C)(N)[C@H](O)[C@H](C)O2)Oc2ccc(cc2Cl)[C@H]1O [Vancomycin],72 hour lungs (CFU/gram of lung) log10CFU/Lung,[8]; [11],5.30 log10CFU/Lung
same,Change in CFUs from 2 hr.,[8]; [11],2.18 log 10 CFU
same,Survival >60 hrs,"[8]; SC/BID 3 days, vancomycin 50 mg/kg, 9 rats",8/9
same,survival compared to the infection controls,[8]; vancomycin 50 mg/kg SC/BID,increased survival
same,Change in CFUs from 72 hr.,"[8]; vs 72 hr infection controls, vancomycin 50 mg/kg SC/BID",−3.38 log 10 CFU
same,cure rate,[9],52.2%
